The results in this text go back to ChEMBL document CHEMBL5233255, “Natural and nature-inspired stilbenoids as antiviral agents” (Eur J Med Chem, 2020).

Data set [1] can be described thus: Cytotoxicity against HEK293T cells. It counts as toxicity, cell-based, HEK-293T. The note with it: human, read-out: TC50 (the source's name).
The test system of data set [2] is Human immunodeficiency virus 1. Put plainly: Antiviral activity against HIV-1 infected in HEK293T cells. As to conditions: Human immunodeficiency virus 1, HEK-293T. The format is functional, organism-based.
Data set [3] can be described thus: Selectivity index, ratio of TC50 for cytotoxicity against HEK293T cells to EC50 for antiviral activity against HIV-1 infected in HEK293T cells. The format is toxicity, cell-based. The note with it: human.
The test system of the next data set is dengue virus type 2. As to the kind of experiment: Antiviral activity against Dengue virus 2 New Guinea C infected in human Huh-7 cells assessed as reduction in virus induced cytopathic effect incubated for 3 days by trypan blue staining based assay. The format is functional, organism-based. The note with it: Huh-7, 72 h. (Protection from cytopathic effect is a common read-out in antiviral testing.)

A short description of data set [4]: Cytotoxicity against human Huh-7 cells assessed as reduction in cell viability incubated for 3 days by MTT assay. It counts as toxicity, cell-based. As to conditions: time 3 day. (Tetrazolium dyes change colour on reduction, which living cells bring about.)
The nature of data set [5]: Selectivity index, ratio of CC50 for cytotoxicity against human Huh-7 cells to EC50 for Dengue virus 2 New Guinea C infected in human Huh-7 cells. As to conditions: read-out: Ratio CC50/EC50. The format is toxicity, cell-based.
Data set [6] deals with Human immunodeficiency virus 1. As to the kind of experiment: Antiviral activity against HIV-1 GB8 infected in human JM1 cells. As to conditions: Human immunodeficiency virus 1, GB8, JM1. It counts as functional, organism-based.
Another data set concerns Human alphaherpesvirus 1. As to the kind of experiment: Antiviral activity against HSV-1 KOS infected in MDCK cells assessed as inhibition of viral replication measured after 24 hrs by plaque reduction assay. The format is functional, organism-based. As to conditions: Human alphaherpesvirus 1, KOS.
In the next data set the test system is Human alphaherpesvirus 2. As to the kind of experiment: Antiviral activity against HSV-2 UW 268 infected in MDCK cells assessed as inhibition of viral replication measured after 24 hrs by plaque reduction assay. It counts as functional, organism-based. The note with it: Human alphaherpesvirus 2, UW 268, MDCK. In general terms: In a plaque reduction assay, fewer plaques than in the control indicate reduced infectivity or spread.

The subject of data set [7] is Influenza A virus. Put plainly: Antiviral activity against influenza A virus A/NWS/33 (H1N1) infected in MDCK cells. It counts as functional, organism-based.
The test system of another data set is Coxsackievirus B3. Put plainly: Antiviral activity against CVB3 infected in African green monkey Vero cells assessed as reduction in cytopathic effect by SRB assay. It counts as functional, organism-based. The note with it: Enterovirus B.
Another data set deals with Enterovirus A71. Put plainly: Antiviral activity against human EV71 infected in African green monkey Vero cells assessed as reduction in cytopathic effect by SRB assay. It counts as functional, organism-based. As to conditions: Enterovirus A.
Data set [8] deals with Influenza A virus. Put plainly: Antiviral activity against influenza A virus A/PR/8/34 (H1N1) infected in human A549 cells assessed as inhibition of RANTES production incubated for 48 hrs by ELISA. It counts as functional, organism-based. As to conditions: A549, 48 h.
Data set [9] can be described thus: Cytotoxicity against human A549 cells assessed as reduction in cell viability by Alamar blue assay. The format is toxicity, cell-based.
In data set [10] the test system is Hepatitis C virus. As to the kind of experiment: Antiviral activity against Hepatitis C virus infected in human Huh7.5 cells assessed as reduction in viral replication. The format is functional, organism-based, Hepacivirus hominis.
A short description of data set [11]: Cytotoxicity against human Huh7.5 cells infected with Hepatitis C virus assessed as reduction in cell viability. The format is toxicity, cell-based, Huh-7.5.
A short description of data set [12]: Cytotoxicity against HCV RNA-transfected human Huh7.5 cells assessed as reduction in cell viability. It counts as toxicity, cell-based, Huh-7.5. The note with it: HCV RNA-transfected Huh7.5 cells.
For data set [13], the system named is Hepatitis C virus. Put plainly: Antiviral activity against Hepatitis C virus genotype 2 infected in renilla luciferase-J6/JFH1 RNA-transfected human Huh7.5 cells assessed as reduction in viral replication incubated for 72 hrs by qRT-PCR analysis. The format is functional, organism-based, Hepacivirus hominis. As to conditions: genotype 2, Huh7.5, 72 h.
Data set [14] relates to Hepatitis C virus. As to the kind of experiment: Antiviral activity against Hepatitis C virus genotype 1 infected in Bart79I RNA-transfected human Huh7.5 cells assessed as reduction in viral replication incubated for 24 to 72 hrs by RT-PCR assay. The format is functional, organism-based, Hepacivirus hominis. As to conditions: genotype 1, Huh7.5.
Data set [15] relates to Hepatitis C virus. As to the kind of experiment: Antiviral activity against Hepatitis C virus genotype 2 infected in human Huh7.5 cells assessed as reduction in viral replication by RT-PCR assay. The format is functional, organism-based, Hepacivirus hominis. As to conditions: genotype 2, Huh7.5.
Data set [16] addresses Neuraminidase (Influenza A virus (A/Puerto Rico/8/1934(H1N1)), UniProt P03468). As to the kind of experiment: Inhibition of influenza A virus A/PR/8/34 (H1N1) neuraminidase.
For data set [17], the system named is Influenza A virus. As to the kind of experiment: Antiviral activity against influenza A virus A/Guangdong/243/72 ([…]) infected in MDCK cells assessed as inhibition of virus-induced cytopathic effect. It counts as functional, organism-based.
Data set [18] in a line: Selectivity index, ratio of CC50 for cytotoxicity against MDCK cells to IC50 for influenza A virus A/Guangdong/243/72 ([…]) infected in MDCK cells. It counts as toxicity, cell-based. The note with it: dog, read-out: Ratio CC50/IC50.
In data set [19] the test system is Human immunodeficiency virus 1. As to the kind of experiment: Antiviral activity against HIV-1 RF infected in human JM1 cells. The format is functional, organism-based. As to conditions: Human immunodeficiency virus 1, RF.

Converted amounts (≈) assume the structure as drawn.

Sequence of Neuraminidase (Influenza A virus (A/Puerto Rico/8/1934(H1N1)), UniProt P03468) (P03468 whole entry): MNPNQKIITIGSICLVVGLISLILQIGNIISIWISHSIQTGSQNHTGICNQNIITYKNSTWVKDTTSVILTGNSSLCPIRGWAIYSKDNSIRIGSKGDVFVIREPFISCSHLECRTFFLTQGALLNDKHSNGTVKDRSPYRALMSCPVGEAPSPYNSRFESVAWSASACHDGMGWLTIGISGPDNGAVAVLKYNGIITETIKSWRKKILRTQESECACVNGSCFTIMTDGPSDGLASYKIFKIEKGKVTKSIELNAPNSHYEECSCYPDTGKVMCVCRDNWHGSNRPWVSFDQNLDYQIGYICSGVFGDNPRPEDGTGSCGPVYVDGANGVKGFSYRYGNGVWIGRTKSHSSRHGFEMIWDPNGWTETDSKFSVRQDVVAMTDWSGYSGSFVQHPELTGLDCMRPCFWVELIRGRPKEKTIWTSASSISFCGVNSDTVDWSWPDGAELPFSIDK

For `Oc1cc(O)cc(/C=C/c2ccc(O)c(O)c2)c1` [PICEATANNOL], in data set [1], the CC50 was over 400 µM. For the same molecule, the EC50 in [2] was 21.4 µM. The selectivity ratio in data set [3] is over 18.7.

As for `COc1cc(/C(C#N)=C\c2cc3ccccc3s2)cc(OC)c1OC`, the EC50 with dengue virus type 2 is 0.00722 µM. Besides, the CC50 at 72 h in data set [4] is 1.9 µM. The selectivity ratio in data set [5] was 263.

Molecule `O=S(=O)(O)c1cc(N=C=S)ccc1CCc1ccc(N=C=S)cc1S(=O)(=O)O` gave an IC50 in data set [6] of 40 µM.

With `O=C1C=C[C@]23[C@H](C1)Oc1cccc4c1[C@H]2[C@H](c1cc(O)cc2c1[C@@H]4[C@H](c1ccc(O)cc1)O2)[C@@H](c1cc(O)cc2c1[C@@H](c1cc(O)cc(O)c1)[C@H](c1ccc(O)cc1)O2)[C@@H]3c1ccc(O)cc1`, the IC50 with Human alphaherpesvirus 1 is 2.8 µM; in the data set with Human alphaherpesvirus 2, 6.8 µM.

In the case of `Oc1ccc([C@@H]2c3c(O)cc(O)cc3[C@@H]3c4c(cc(O)cc4[C@H]2[C@@H]2c4cc(O)cc5c4[C@@H](c4cc(O)cc(O)c4[C@H]2c2ccc(O)cc2)[C@H](c2ccc(O)cc2)O5)O[C@H]3c2ccc(O)cc2)cc1`, the values for the IC50 with Influenza A virus [7], in the data set with Human alphaherpesvirus 1 and in the data set on Human alphaherpesvirus 2 were 6.4 µM, 2.8 µM and 6.4 µM, respectively.

For `Oc1ccc(/C=C\c2cc(O)cc(O)c2)cc1` [CIS-RESVERATROL], the values for the IC50 in the data set with Coxsackievirus B3 and in the data set with Enterovirus A71 were 12.2 µM and 37.6 µM, respectively.

As to `Oc1ccc(/C=C/c2cc(O)cc3c2[C@@H](c2cc(O)cc(O)c2)[C@H](c2ccc(O)cc2)O3)cc1` [EPSILON-VINIFERIN], the EC50 in the data set with Influenza A virus [8] worked out at 10.1 µM; with Hepatitis C virus [10], 0.159 µM; in the data set on Hepatitis C virus [13] it was 0.1 µM; with Hepatitis C virus [14], 7 µM; in the data set on Hepatitis C virus [15] it was 2.9 µM. Also, the values for the CC50 in [9], in [11] and in data set [12] were 54.7 µM, over 10 µM and over 10 µM, respectively.

Take `COc1cc(/C=C/c2cc(O)cc(O)c2Cc2ccc(O)c(O)c2)ccc1O`: the IC50 in data set [16] is 13.1 µM; in the data set on Influenza A virus [17], 6.17 µg/mL (≈ 16.2 µM). The selectivity ratio in [18] turned out to be 32.4.

For `O=S(=O)(O)c1cc(N=C=S)ccc1/C=C/c1ccc(N=C=S)cc1S(=O)(=O)O`, the IC50 in data set [19] stood at 20 µM.

A word on the EC50: it is the concentration needed to bring the measured effect to its halfway point. Broadly, the IC50 is the midpoint of a concentration-inhibition curve.
